ChEMBL document CHEMBL1201861, “Genomics of Drug Sensitity in Cancer screening data, Wellcome Trust Sanger Institute”
pIC50: −log10 of the molar value.

Key:
Assay in all cases: cells
KNS-81-FD = type: functional, cell-based, Homo sapiens; conditions: Homo sapiens, KNS-81-FD;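 note: growth inhibition of KNS-81-FD cells, read out with a cell viability assay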
Description: SANGER: Inhibition of human KNS-81-FD cell growth in a cell viability assay.

TE-10 = type: functional, cell-based, Homo sapiens; conditions: Homo sapiens, TE-10;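 note: growth inhibition of TE-10 cells, measured by a cell viability assay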
Description: SANGER: Inhibition of human TE-10 cell growth in a cell viability assay.

OCI-AML2 = type: functional, cell-based; conditions: Homo sapiens;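 note: growth inhibition of OCI-AML2 cells, read out with a cell viability assay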
Description: SANGER: Inhibition of human OCI-AML2 cell growth in a cell viability assay.

RKO = type: functional, cell-based, Homo sapiens; conditions: Homo sapiens, RKO;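 note: growth inhibition of human RKO cells, read out with a cell viability assay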
Description: SANGER: Inhibition of human RKO cell growth in a cell viability assay.

MN-60 = type: functional, cell-based; conditions: Homo sapiens;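 note: growth inhibition of the MN-60 cell line, determined with a cell viability assay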
Description: SANGER: Inhibition of human MN-60 cell growth in a cell viability assay.

A2780 = type: functional, cell-based, Homo sapiens; conditions: Homo sapiens, A2780;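 note: growth inhibition of A2780 cells, read out with a cell viability assay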
Description: SANGER: Inhibition of human A2780 cell growth in a cell viability assay.

MS-1 = type: functional, cell-based; conditions: Homo sapiens;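 note: growth inhibition of MS-1 cells, read out by cell viability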
Description: SANGER: Inhibition of human MS-1 cell growth in a cell viability assay.

SJSA-1 = type: functional, cell-based, Homo sapiens; conditions: Homo sapiens, SJSA-1;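 note: growth inhibition of human SJSA-1 cells, read out through a cell viability measurement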
Description: SANGER: Inhibition of human SJSA-1 cell growth in a cell viability assay.

SNU-387 = type: functional, cell-based, Homo sapiens; conditions: Homo sapiens, SNU-387
Description: SANGER: Inhibition of human SNU-387 cell growth in a cell viability assay.

TYK-nu = type: functional, cell-based, Homo sapiens; conditions: Homo sapiens, TYK-nu;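 note: growth inhibition of human TYK-nu cells, read out by a cell viability assay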
Description: SANGER: Inhibition of human TYK-nu cell growth in a cell viability assay.

AN3-CA = type: functional, cell-based; conditions: Homo sapiens;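 note: growth inhibition of human AN3-CA cells measured by a cell viability assay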
Description: SANGER: Inhibition of human AN3-CA cell growth in a cell viability assay.

HCE-T = type: functional, cell-based, Homo sapiens; conditions: Homo sapiens, HCE-T;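 note: cell viability assay read-out, reporting inhibition of HCE-T cell growth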
Description: SANGER: Inhibition of human HCE-T cell growth in a cell viability assay.

8505C = type: functional, cell-based, Homo sapiens; conditions: Homo sapiens, 8505C
Description: SANGER: Inhibition of human 8505C cell growth in a cell viability assay.

NCI-H1355 = type: functional, cell-based, Homo sapiens; conditions: Homo sapiens, NCI-H1355;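 note: growth inhibition of human NCI-H1355 cells, read out by a cell viability assay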
Description: SANGER: Inhibition of human NCI-H1355 cell growth in a cell viability assay.

ES5 = type: functional, cell-based, Homo sapiens; conditions: Homo sapiens, ES5;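 note: growth inhibition of human ES5 cells, read out by a cell viability assay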
Description: SANGER: Inhibition of human ES5 cell growth in a cell viability assay.

CHL-1 = type: functional, cell-based, Homo sapiens; conditions: Homo sapiens, CHL-1;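 note: cell growth inhibition, read out with a cell viability assay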
Description: SANGER: Inhibition of human CHL-1 cell growth in a cell viability assay.

JVM-3 = type: functional, cell-based; conditions: Homo sapiens;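 note: growth inhibition of human JVM-3 cells, read out with a cell viability assay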
Description: SANGER: Inhibition of human JVM-3 cell growth in a cell viability assay.

LoVo = type: functional, cell-based; conditions: Homo sapiens;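 note: growth inhibition of human LoVo cells, read out with a cell viability assay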
Description: SANGER: Inhibition of human LoVo cell growth in a cell viability assay.

OVCAR-3 = type: functional, cell-based, Homo sapiens; conditions: Homo sapiens, OVCAR-3;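 note: growth inhibition of human OVCAR-3 cells, determined by a cell viability assay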
Description: SANGER: Inhibition of human OVCAR-3 cell growth in a cell viability assay.

SCH = type: functional, cell-based, Homo sapiens; conditions: Homo sapiens, SCH;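 note: growth inhibition of human SCH cells, read out in a cell viability assay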
Description: SANGER: Inhibition of human SCH cell growth in a cell viability assay.

NB10 = type: functional, cell-based, Homo sapiens; conditions: Homo sapiens, NB10;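 note: growth inhibition of NB10 cells, read out by a cell viability assay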
Description: SANGER: Inhibition of human NB10 cell growth in a cell viability assay.

HuP-T4 = type: functional, cell-based, Homo sapiens; conditions: Homo sapiens, HuP-T4;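 note: cell viability assay measuring how much HuP-T4 cell growth is inhibited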
Description: SANGER: Inhibition of human HuP-T4 cell growth in a cell viability assay.

Capan-2 = type: functional, cell-based, Homo sapiens; conditions: Homo sapiens, Capan-2;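 note: Capan-2 cell growth inhibition, read out with a viability assay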
Description: SANGER: Inhibition of human Capan-2 cell growth in a cell viability assay.

TGW = type: functional, cell-based; conditions: Homo sapiens;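 note: growth inhibition of human TGW cells, read out with a cell viability assay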
Description: SANGER: Inhibition of human TGW cell growth in a cell viability assay.

SNU-5 = type: functional, cell-based; conditions: Homo sapiens;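 note: cell viability readout used to measure growth inhibition in human NCI-SNU-5 cells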
Description: SANGER: Inhibition of human NCI-SNU-5 cell growth in a cell viability assay.

NCI-H520 = type: functional, cell-based, Homo sapiens; conditions: Homo sapiens, NCI-H520;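 note: growth inhibition of NCI-H520 cells, measured by a cell viability assay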
Description: SANGER: Inhibition of human NCI-H520 cell growth in a cell viability assay.

SW-620 = type: functional, cell-based, Homo sapiens; conditions: Homo sapiens, SW-620;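 note: growth inhibition of human SW-620 cells, measured by a cell viability assay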
Description: SANGER: Inhibition of human SW620 cell growth in a cell viability assay.

SCC-25 = type: functional, cell-based, Homo sapiens; conditions: Homo sapiens, SCC-25;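 note: growth inhibition of SCC-25 cells, measured with a cell viability assay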
Description: SANGER: Inhibition of human SCC-25 cell growth in a cell viability assay.

RT-112 = type: functional, cell-based, Homo sapiens; conditions: Homo sapiens, RT-112
Description: SANGER: Inhibition of human RT-112 cell growth in a cell viability assay.

SK-LU-1 = type: functional, cell-based, Homo sapiens; conditions: Homo sapiens, SK-LU-1;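 note: cell viability assay measuring growth inhibition of human SK-LU-1 cells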
Description: SANGER: Inhibition of human SK-LU-1 cell growth in a cell viability assay.

MEG-01 = type: functional, cell-based; conditions: Homo sapiens;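 note: growth inhibition of MEG-01 cells, read out by a cell viability assay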
Description: SANGER: Inhibition of human MEG-01 cell growth in a cell viability assay.

ES7 = type: functional, cell-based, Homo sapiens; conditions: Homo sapiens, ES7;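 note: growth inhibition of cultured human ES7 cells, read out as cell viability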
Description: SANGER: Inhibition of human ES7 cell growth in a cell viability assay.

HCC1954 = type: functional, cell-based, Homo sapiens; conditions: Homo sapiens, HCC1954;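 note: growth inhibition of human HCC1954 cells, read out with a cell viability assay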
Description: SANGER: Inhibition of human HCC1954 cell growth in a cell viability assay.

LOX IMVI = type: functional, cell-based; conditions: Homo sapiens
Description: SANGER: Inhibition of human LOXIMVI cell growth in a cell viability assay.

HuTu80 = type: functional, cell-based, Homo sapiens, HUTU-80; conditions: Homo sapiens, HuTu80;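 note: growth inhibition of HuTu80 human cells, determined with a cell viability readout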
Description: SANGER: Inhibition of human HUTU-80 cell growth in a cell viability assay.

786-0 = type: functional, cell-based, Homo sapiens; conditions: Homo sapiens
Description: SANGER: Inhibition of human 786-0 cell growth in a cell viability assay.

L-363 = type: functional, cell-based; conditions: Homo sapiens
Description: SANGER: Inhibition of human L-363 cell growth in a cell viability assay.

KYSE-70 cell line = type: functional, cell-based, Homo sapiens; conditions: Homo sapiens, KYSE-70;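 note: cell viability assay read-out, with IC50 expressing suppression of KYSE-70 cell growth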
Description: SANGER: Inhibition of human KYSE-70 cell growth in a cell viability assay.

SF-126 = type: functional, cell-based, Homo sapiens; conditions: Homo sapiens, SF-126;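 note: growth inhibition of human SF126 cells, read out with a cell viability assay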
Description: SANGER: Inhibition of human SF126 cell growth in a cell viability assay.

TGBC24TKB = type: functional, cell-based, Homo sapiens; conditions: Homo sapiens, TGBC24TKB;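 note: growth inhibition of human TGBC24TKB cells, read out with a cell viability assay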
Description: SANGER: Inhibition of human TGBC24TKB cell growth in a cell viability assay.

NCI-H810 = type: functional, cell-based, Homo sapiens; conditions: Homo sapiens, NCI-H810;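 note: IC50 reflects inhibition of cancer cell line growth, read out with a cell viability assay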
Description: SANGER: Inhibition of human NCI-H810 cell growth in a cell viability assay.

NCI-H1650 = type: functional, cell-based, Homo sapiens; conditions: Homo sapiens, NCI-H1650;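 note: growth inhibition of human NCI-H1650 cells measured by a cell viability assay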
Description: SANGER: Inhibition of human NCI-H1650 cell growth in a cell viability assay.

SK-MEL-24 = type: functional, cell-based; conditions: Homo sapiens;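 note: growth inhibition read out by a cell viability assay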
Description: SANGER: Inhibition of human SK-MEL-24 cell growth in a cell viability assay.

KYSE-510 = type: functional, cell-based, Homo sapiens; conditions: Homo sapiens, KYSE-510;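 note: cell viability readout used to measure how strongly growth of the cell line is suppressed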
Description: SANGER: Inhibition of human KYSE-510 cell growth in a cell viability assay.

KYSE-520 cell line = type: functional, cell-based, Homo sapiens; conditions: Homo sapiens, KYSE-520;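 note: growth inhibition of human KYSE-520 cells, read out with a viability assay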
Description: SANGER: Inhibition of human KYSE-520 cell growth in a cell viability assay.

YAPC = type: functional, cell-based, Homo sapiens; conditions: Homo sapiens, YAPC;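 note: growth inhibition of YAPC cells, measured with a cell viability assay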
Description: SANGER: Inhibition of human YAPC cell growth in a cell viability assay.

BB49-HNC = type: functional, cell-based, Homo sapiens; conditions: Homo sapiens, BB49-HNC;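 note: cell viability assay read-out, reported as inhibition of BB49-HNC cell growth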
Description: SANGER: Inhibition of human BB49-HNC cell growth in a cell viability assay.

KP-N-YN = type: functional, cell-based; conditions: Homo sapiens;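 note: growth inhibition of KP-N-YN cells, read out with a cell viability assay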
Description: SANGER: Inhibition of human KP-N-YN cell growth in a cell viability assay.

GB-1 = type: functional, cell-based, Homo sapiens; conditions: Homo sapiens, GB-1;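 note: growth of GB-1 cells judged by a viability assay, IC50 marks the concentration inhibiting growth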
Description: SANGER: Inhibition of human GB-1 cell growth in a cell viability assay.

LC-2-ad = type: functional, cell-based, Homo sapiens; conditions: Homo sapiens, LC-2-ad;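 note: growth inhibition of human LC-2-ad cells, read out with a cell viability assay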
Description: SANGER: Inhibition of human LC-2-ad cell growth in a cell viability assay.

HMV-2 cell line = type: functional, cell-based, Homo sapiens; conditions: Homo sapiens, HMV-2;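 note: growth inhibition of HMV-II cells, read out with a cell viability assay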
Description: SANGER: Inhibition of human HMV-II cell growth in a cell viability assay.

FTC-133 = type: functional, cell-based, Homo sapiens; conditions: Homo sapiens, FTC-133

Structure (SMILES): C[C@]1(O)C[C@@H](c2nc(-c3ccc4ccc(-c5ccccc5)nc4c3)c3c(N)nccn32)C1 [LINSITINIB]
- pIC50 (KNS-81-FD): < 5.59
- pIC50 (TE-10): < 5.59
- pIC50 (OCI-AML2): < 5.59
- pIC50 (RKO): < 5.59
- pIC50 (MN-60): < 5.59
- pIC50 (A2780): < 5.59
- pIC50 (MS-1): < 5.59
- pIC50 (SJSA-1): 5.98
- pIC50 (SNU-387): 6.00
- pIC50 (TYK-nu): < 5.59
- pIC50 (AN3-CA): < 5.59
- pIC50 (HCE-T): < 5.59
- pIC50 (8505C): < 5.59
- pIC50 (NCI-H1355): 6.74
- pIC50 (ES5): < 5.59
- pIC50 (CHL-1): < 5.59
- pIC50 (JVM-3): < 5.59
- pIC50 (LoVo): < 5.59
- pIC50 (OVCAR-3): < 5.59
- pIC50 (SCH): < 5.59
- pIC50 (NB10): 6.34
- pIC50 (HuP-T4): < 5.59
- pIC50 (Capan-2): < 5.59
- pIC50 (TGW): < 5.59
- pIC50 (SNU-5): < 5.59
- pIC50 (NCI-H520): < 5.59
- pIC50 (SW-620): < 5.59
- pIC50 (SCC-25): < 5.59
- pIC50 (RT-112): < 5.59
- pIC50 (SK-LU-1): < 5.59
- pIC50 (MEG-01): < 5.59
- pIC50 (ES7): < 5.59
- pIC50 (HCC1954): < 5.59
- pIC50 (LOX IMVI): < 5.59
- pIC50 (HuTu80): < 5.59
- pIC50 (786-0): < 5.59
- pIC50 (L-363): 5.87
- pIC50 (KYSE-70 cell line): < 5.59
- pIC50 (SF-126): < 5.59
- pIC50 (TGBC24TKB): 5.82
- pIC50 (NCI-H810): < 5.59
- pIC50 (NCI-H1650): < 5.59
- pIC50 (SK-MEL-24): < 5.59
- pIC50 (KYSE-510): < 5.59
- pIC50 (KYSE-520 cell line): < 5.59
- pIC50 (YAPC): < 5.59
- pIC50 (BB49-HNC): < 5.59
- pIC50 (KP-N-YN): < 5.59
- pIC50 (GB-1): < 5.59
- pIC50 (LC-2-ad): 5.76
- pIC50 (HMV-2 cell line): 7.05
- pIC50 (FTC-133): < 5.59

Structure (SMILES): C=CCc1cccc(/C=N/NC(=O)CN2CCN(Cc3ccccc3)CC2)c1O [PAC-1]
- pIC50 (KNS-81-FD): < 5.59
- pIC50 (TE-10): < 5.59
- pIC50 (OCI-AML2): < 5.59
- pIC50 (RKO): < 5.59
- pIC50 (MN-60): < 5.59
- pIC50 (A2780): < 5.59
- pIC50 (MS-1): < 5.59
- pIC50 (SJSA-1): 5.63
- pIC50 (SNU-387): < 5.59
- pIC50 (TYK-nu): < 5.59
- pIC50 (AN3-CA): < 5.59
- pIC50 (HCE-T): < 5.59
- pIC50 (8505C): < 5.59
- pIC50 (NCI-H1355): < 5.59
- pIC50 (ES5): < 5.59
- pIC50 (CHL-1): < 5.59
- pIC50 (JVM-3): < 5.59
- pIC50 (LoVo): < 5.59
- pIC50 (OVCAR-3): < 5.59
- pIC50 (SCH): < 5.59
- pIC50 (NB10): < 5.59
- pIC50 (HuP-T4): < 5.59
- pIC50 (Capan-2): < 5.59
- pIC50 (TGW): < 5.59
- pIC50 (SNU-5): < 5.59
- pIC50 (NCI-H520): < 5.59
- pIC50 (SW-620): < 5.59
- pIC50 (SCC-25): < 5.59
- pIC50 (RT-112): < 5.59
- pIC50 (SK-LU-1): < 5.59
- pIC50 (MEG-01): < 5.59
- pIC50 (ES7): < 5.59
- pIC50 (HCC1954): < 5.59
- pIC50 (LOX IMVI): < 5.59
- pIC50 (HuTu80): < 5.59
- pIC50 (786-0): 6.13
- pIC50 (L-363): < 5.59
- pIC50 (KYSE-70 cell line): < 5.59
- pIC50 (SF-126): < 5.59
- pIC50 (TGBC24TKB): < 5.59
- pIC50 (NCI-H810): < 5.59
- pIC50 (NCI-H1650): < 5.59
- pIC50 (SK-MEL-24): < 5.59
- pIC50 (KYSE-510): 5.74
- pIC50 (KYSE-520 cell line): < 5.59
- pIC50 (YAPC): < 5.59
- pIC50 (BB49-HNC): < 5.59
- pIC50 (KP-N-YN): < 5.59
- pIC50 (GB-1): < 5.59
- pIC50 (LC-2-ad): 6.05
- pIC50 (HMV-2 cell line): < 5.59
- pIC50 (FTC-133): < 5.59
